Source: PubChem BioAssay (NCI)
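Assay format: 96-well plates, 48-hour exposure. Definition used: TGI = concentration required for complete inhibition of growth.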

Experiments:
Assay in all cases: NCI-60 cell line screen, 48 h
[1] = tested on: 786-0 renal
[2] = tested on: A498 renal
[3] = tested on: A549 NSCLC
[4] = tested on: ACHN renal
[5] = tested on: BT-549 breast
[6] = tested on: CAKI-1 renal
[7] = tested on: CCRF-CEM leukemia
[8] = tested on: COLO 205 colon
[9] = tested on: DU-145 prostate
[10] = tested on: EKVX NSCLC
[11] = tested on: HCC-2998 colon
[12] = tested on: HCT-116 colon
[13] = tested on: HCT-15 colon
[14] = tested on: HL-60(TB) leukemia
[15] = tested on: HOP-62 NSCLC
[16] = tested on: HOP-92 NSCLC
[17] = tested on: HS 578T breast
[18] = tested on: HT29 colon
[19] = tested on: IGROV1 ovarian
[20] = tested on: K-562 leukemia
[21] = tested on: KM12 colon
[22] = tested on: LOX IMVI melanoma
[23] = tested on: M14 melanoma
[24] = tested on: MALME-3M melanoma
[25] = tested on: MCF7 breast
[26] = tested on: MDA-MB-231 breast
[27] = tested on: MDA-MB-435
[28] = tested on: MOLT-4 leukemia
[29] = tested on: NCI-H226 lung
[30] = tested on: NCI-H23 lung
[31] = tested on: NCI-H460 lung
[32] = tested on: NCI-H522 lung
[33] = tested on: NCI/ADR-RES ovarian
[34] = tested on: OVCAR-3 ovarian
[35] = tested on: OVCAR-4 ovarian
[36] = tested on: OVCAR-5 ovarian
[37] = tested on: OVCAR-8 ovarian
[38] = tested on: PC-3 prostate
[39] = tested on: RPMI-8226 leukemia
[40] = tested on: RXF 393 renal
[41] = tested on: SF-268 CNS
[42] = tested on: SF-295 CNS
[43] = tested on: SK-MEL-2 melanoma
[44] = tested on: SK-MEL-28 melanoma
[45] = tested on: SK-MEL-5 melanoma
[46] = tested on: SK-OV-3 ovarian
[47] = tested on: SN12C renal
[48] = tested on: SNB-19 CNS
[49] = tested on: SNB-75 CNS
[50] = tested on: SR leukemia
[51] = tested on: SW-620 colon
[52] = tested on: T-47D breast
[53] = tested on: TK-10 renal
[54] = tested on: U251 CNS
[55] = tested on: UACC-257 melanoma
[56] = tested on: UACC-62 melanoma
[57] = tested on: UO-31 renal

## COC(=O)/C=C1\C(=O)Nc2ccc(Br)cc21
[1]
  TGI: 3.05 µM
[2]
  TGI: 11.6 µM
[3]
  TGI: 12.3 µM
[4]
  TGI: 3.36 µM
[5]
  TGI: 3.88 µM
[6]
  TGI: 3.87 µM
[7]
  TGI: 1.17 µM
[8]
  TGI: 3.45 µM
[9]
  TGI: 4.38 µM
[10]
  TGI: 4.49 µM
[11]
  TGI: 4.58 µM
[12]
  TGI: 2.64 µM
[13]
  TGI: 2.81 µM
[14]
  TGI: 3.92 µM
[15]
  TGI: 4.61 µM
[16]
  TGI: 4.92 µM
[17]
  TGI: > 34.4 µM
[18]
  TGI: 3.68 µM
[19]
  TGI: 3.63 µM
[20]
  TGI: > 28 µM
[21]
  TGI: 4.8 µM
[22]
  TGI: 2.25 µM
[23]
  TGI: 6.03 µM
[24]
  TGI: 7.75 µM
[25]
  TGI: 3.01 µM
[26]
  TGI: 6.64 µM
[27]
  TGI: 4.76 µM
[28]
  TGI: 4.01 µM
[29]
  TGI: 4.03 µM
[30]
  TGI: 3.52 µM
[31]
  TGI: 5.05 µM
[32]
  TGI: 2.34 µM
[33]
  TGI: 4.49 µM
[34]
  TGI: 2.95 µM
[35]
  TGI: 5.84 µM
[36]
  TGI: 3.17 µM
[37]
  TGI: 5.78 µM
[38]
  TGI: 2.82 µM
[39]
  TGI: 4.48 µM
[40]
  TGI: 3.27 µM
[41]
  TGI: 13.8 µM
[42]
  TGI: 5.07 µM
[43]
  TGI: 1.77 µM
[44]
  TGI: 8.43 µM
[45]
  TGI: 3.2 µM
[46]
  TGI: 10.1 µM
[47]
  TGI: 3 µM
[48]
  TGI: 11.4 µM
[49]
  TGI: 3.87 µM
[50]
  TGI: 1.56 µM
[51]
  TGI: 3.22 µM
[52]
  TGI: 5.6 µM
[53]
  TGI: 3.09 µM
[54]
  TGI: 4.73 µM
[55]
  TGI: 3.07 µM
[56]
  TGI: 3.2 µM
[57]
  TGI: 5.55 µM
